# Earlier results in patent publication US20070122482A1, “Method for preparing modified release pharmaceutical compositions” (priority 2003, published 2007).
# Structures can show the parent of a compound that is named as a salt. Where two headings read alike, the source gives them in different places.
# Key:
# [1] = for Solubility in water: Table 1, Poorly-Soluble Drug Candidates; for Solubility In Water: Table 2, Poorly-Soluble Drugs with Low Bioavailability
Compound,Solubility in water [1],other results
CC(=O)N1CCN(c2ccc(OCC3COC(Cn4ccnc4)(c4ccc(Cl)cc4Cl)O3)cc2)CC1 (stereo not shown) [Ketoconazole],Insoluble,
Nc1ccc(O)c(C(=O)O)c1 [Mesalamine],,Bioavailability (Table 2): Low (˜20%)
Cc1ccc(-c2nc3ccc(C)cn3c2CC(=O)N(C)C)cc1 [Zolpidem],Sparingly,
COc1cc([C@@H]2c3cc4c(cc3[C@@H](O[C@@H]3O[C@@H]5CO[C@@H](C)O[C@H]5[C@H](O)[C@H]3O)[C@H]3COC(=O)[C@H]23)OCO4)cc(OC)c1O [Etoposide],Very Slightly,
CN1CCC[C@@H]1CCO[C@](C)(c1ccccc1)c1ccc(Cl)cc1 [Clemastine fumarate],,Bioavailability (Table 2): Low (˜39%); Solubility In Water [1]: Slightly soluble
Cholestyramine,Insoluble,
COCCCC/C(=N\OCCN)c1ccc(C(F)(F)F)cc1 [Fluvoxamine],Sparingly,
CCOC(=O)C1=C(COCCN)NC(C)=C(C(=O)OC)C1c1ccccc1Cl (stereo not shown) [Amlodipine],Slightly,
C[C@]12CC[C@H]3[C@@H](CCC4=CC(=O)CC[C@@]43C)[C@@H]1CC[C@@H]2O [Testosterone],,Bioavailability (in words) (Table 2): Low; Solubility In Water [1]: Insoluble
CC(=O)S[C@@H]1CC2=CC(=O)CC[C@]2(C)[C@H]2CC[C@@]3(C)[C@@H](CC[C@@]34CCC(=O)O4)[C@H]12 [Spironolactone],,Solubility In Water [1]: Insoluble
COc1cc(N)c(Cl)cc1C(=O)NC1CCN(CCCOc2ccc(F)cc2)CC1OC (stereo not shown) [Cisapride],Insoluble,Solubility In Water [1]: Insoluble
CC(C)(C)NC(=O)[C@@H]1C[C@@H]2CCCC[C@@H]2CN1C[C@@H](O)[C@H](Cc1ccccc1)NC(=O)[C@H](CC(N)=O)NC(=O)c1ccc2ccccc2n1 [Saquinavir],Practically insoluble,
O=C1NC(=O)C(c2ccccc2)(c2ccccc2)N1 [Phenytoin],Insoluble,
CC(=O)O[C@H]1C(=O)[C@@]2(C)[C@H]([C@H](OC(=O)c3ccccc3)[C@]3(O)C[C@H](OC(=O)[C@H](O)[C@@H](NC(=O)c4ccccc4)c4ccccc4)C(C)=C1C3(C)C)[C@]1(OC(C)=O)CO[C@@H]1C[C@@H]2O [Paclitaxel],Insoluble,
OC(Cn1cncn1)(Cn1cncn1)c1ccc(F)cc1F [Fluconazole],Slightly,
CN1CCN(C2=Nc3cc(Cl)ccc3Nc3ccccc32)CC1 [Clozapine],Slightly,
CCOC(=O)C1=C(C)NC(C)=C(C(=O)OC)C1c1cccc(Cl)c1Cl (stereo not shown) [Felodipine],Insoluble,Solubility In Water [1]: Insoluble
CCOC(=O)[C@H](CCc1ccccc1)N[C@@H](C)C(=O)N1CCC[C@H]1C(=O)O [Enalapril],Sparingly,
COc1ccc(Cl)cc1C(=O)NCCc1ccc(S(=O)(=O)NC(=O)NC2CCCCC2)cc1 [Glyburide],Sparingly,
COC(=O)C1=C(C)NC(C)=C(C(=O)OC(C)C)C1c1cccc2nonc12 (stereo not shown) [Isradipine],Insoluble,Solubility In Water [1]: Insoluble
CC(C)(C)NC(=O)[C@H]1CC[C@H]2[C@@H]3CC[C@H]4NC(=O)C=C[C@]4(C)[C@H]3CC[C@]12C [Finasteride],Insoluble,
COc1ccc(CCN2CCC(Nc3nc4ccccc4n3Cc3ccc(F)cc3)CC2)cc1 [Astemizole],Insoluble,Bioavailability (in words) (Table 2): Low-moderate; Solubility In Water [1]: Insoluble

Compound,Solubility in water [1],other results
COc1ccc2[nH]c([S+]([O-])Cc3ncc(C)c(OC)c3C)nc2c1 (stereo not shown) [Omeprazole],Slightly,
OC(CCN1CCCCC1)(c1ccccc1)C1CC2C=CC1C2 (stereo not shown) [Biperiden],,Solubility In Water [1]: Sparingly soluble
CCn1cc(C(=O)O)c(=O)c2cc(F)c(N3CCNCC3)cc21 [Norfloxacin],Slightly,Solubility In Water [1]: Slightly soluble
CCc1cccc2c3c([nH]c12)C(CC)(CC(=O)O)OCC3 (stereo not shown) [Etodolac],Insoluble,
CCOC(=O)[C@H](CCc1ccccc1)N[C@@H](C)C(=O)N1[C@H](C(=O)O)C[C@@H]2CCC[C@@H]21 [Ramipril],Insoluble,
Cc1ncc2n1-c1ccc(Cl)cc1C(c1ccccc1F)=NC2 [Midazolam],Insoluble,
CCCCCc1cc(O)c2c(c1)OC(C)(C)[C@@H]1CCC(C)=C[C@@H]21 [Dronabinol],,Solubility In Water [1]: Insoluble
Nc1nnc(-c2cccc(Cl)c2Cl)c(N)n1 [Lamotrigine],Slightly,
CN1C(C(=O)Nc2ccccn2)=C(O)c2ccccc2S1(=O)=O [Piroxicam],Sparingly,
CC1CC(OC(=O)C(O)c2ccccc2)CC(C)(C)C1 (stereo not shown) [Cyclandelate],,Bioavailability (in words) (Table 2): Low; Solubility In Water [1]: Insoluble
Cc1nnc2n1-c1ccc(Cl)cc1C(c1ccccc1)=NC2 [Alprazolam],Insoluble,
CO[C@]12C[C@@H](COC(=O)c3cncc(Br)c3)CN(C)[C@@H]1Cc1cn(C)c3cccc2c13 [Nicergoline],Insoluble,
COc1cc2nc(N3CCN(C(=O)C4COc5ccccc5O4)CC3)nc(N)c2cc1OC (stereo not shown) [Doxazosin],Slightly,
NC(=O)N1c2ccccc2C=Cc2ccccc21 [Carbamazepine],Insoluble,
CO/N=C(\C(=O)N[C@@H]1C(=O)N2C(C(=O)O)=C(COC(C)=O)CS[C@H]12)c1csc(N)n1 [Cefotaxime],Sparingly,
CCOC(=O)[C@H](CCc1ccccc1)N[C@@H](C)C(=O)N1Cc2ccccc2C[C@H]1C(=O)O [Quinapril],Insoluble,
Cc1cccc(Nc2ccccc2C(=O)O)c1C [Mefenamic acid],Slightly,
OCCN1CCN(CCCN2c3ccccc3Sc3ccc(Cl)cc32)CC1 [Perphenazine],,Bioavailability (in words) (Table 2): Low
CN1CCCC(n2nc(Cc3ccc(Cl)cc3)c3ccccc3c2=O)CC1 (stereo not shown) [Azelastine],Insoluble,
CN(C/C=C/C#CC(C)(C)C)Cc1cccc2ccccc12 [Terbinafine],Slightly,
Cn1cnc([N+](=O)[O-])c1Sc1ncnc2nc[nH]c12 [Azathioprine],Insoluble,
CC(=O)OC[C@H]1O[C@@H]([S-])[C@H](OC(C)=O)[C@@H](OC(C)=O)[C@@H]1OC(C)=O.CCP(CC)CC.[Au+] [Auranofin],,Bioavailability (in vivo): Low (15-25%); Solubility In Water [1]: Slightly soluble

Compound,Solubility in water [1],other results
OCCN1CCN(CCCN2c3ccccc3Sc3ccc(C(F)(F)F)cc32)CC1 [Fluphenazine],,Solubility In Water [1]: Insoluble
Cc1c(OCC(F)(F)F)ccnc1C[S+]([O-])c1nc2ccccc2[nH]1 (stereo not shown) [Lansoprazole],Insoluble,
O=C(O)Cc1ccccc1Nc1c(Cl)cccc1Cl [Diclofenac sodium],Sparingly,
CCCC1O[C@@H]2C[C@H]3[C@@H]4CCC5=CC(=O)C=C[C@]5(C)[C@H]4[C@@H](O)C[C@]3(C)[C@]2(C(=O)CO)O1 (stereo partly shown) [Budesonide],Sparingly,Bioavailability (Table 2): Low (˜15%); Solubility In Water [1]: Sparingly soluble
CC(C)(C)c1ccc(C(O)CCCN2CCC(C(O)(c3ccccc3)c3ccccc3)CC2)cc1 (stereo not shown) [Terfenadine],Slightly,
CC1=C(/C=C/C(C)=C/C=C/C(C)=C\C(=O)O)C(C)(C)CCC1 [Isotretinoin],Insoluble,
C[C@@H]1C[C@H]2[C@@H]3CCC4=CC(=O)C=C[C@]4(C)[C@@]3(Cl)[C@@H](O)C[C@]2(C)[C@@]1(O)C(=O)CCl [Mometasone],Insoluble,
CCCC(CCC)C(=O)O [Divalproex],Slightly,
CN[C@H]1CC[C@@H](c2ccc(Cl)c(Cl)c2)c2ccccc21 [Sertraline],Slightly,Solubility In Water [1]: Slightly soluble
NC(N)=Nc1nc(CSCCC(N)=NS(N)(=O)=O)cs1 [Famotidine],Slightly,Solubility In Water [1]: Slightly soluble
C=CCC1(CC(C)C)C(=O)NC(=O)NC1=O [Butalbital],Insoluble,
O=[N+]([O-])O[C@H]1CO[C@H]2[C@@H]1OC[C@H]2O[N+](=O)[O-] [Isosorbide dinitrate],Sparingly,Solubility In Water [1]: Sparingly soluble
CC[C@H](C)C(=O)O[C@H]1C[C@@H](C)C=C2C=C[C@H](C)[C@H](CC[C@@H]3C[C@@H](O)CC(=O)O3)[C@H]21 [Lovastatin],Insoluble,Solubility In Water [1]: Insoluble
CC[C@H]1OC(=O)[C@H](C)[C@@H](O[C@H]2C[C@@](C)(OC)[C@@H](O)[C@H](C)O2)[C@H](C)[C@@H](O[C@@H]2O[C@H](C)C[C@H](N(C)C)[C@H]2O)[C@](C)(OC)C[C@@H](C)C(=O)[C@H](C)[C@@H](O)[C@]1(C)O [Clarithromycin],Insoluble,
OCCN(CCO)c1nc(N2CCCCC2)c2nc(N(CCO)CCO)nc(N3CCCCC3)c2n1 [Dipyridamole],Slightly,
CC(CCc1ccc(O)cc1)NCCc1ccc(O)c(O)c1 (stereo not shown) [Dobutamine],Sparingly,
C#C[C@]1(O)CC[C@H]2[C@@H]3CCC4=Cc5oncc5C[C@]4(C)[C@H]3CC[C@@]21C [Danazol],,Bioavailability (in words) (Table 2): Low
C[C@@](Cc1ccc(O)c(O)c1)(NN)C(=O)O [Carbidopa],Slightly,
COc1ccc2cc(CCC(C)=O)ccc2c1 [Nabumetone],Insoluble,Solubility In Water [1]: Insoluble
CC(C(=O)O)c1ccc(-c2ccccc2)c(F)c1 (stereo not shown) [Flurbiprofen],Slightly,
CC(C)Cc1ccc(C(C)C(=O)O)cc1 (stereo not shown) [Ibuprofen],Insoluble,
